Reference: patent publication US20060142202A1, “Compositions and methods for targeted delivery of immune response modifiers” (3M Innovative Properties Company, priority 2000, published 2006)

| SMILES | melting point |
| --- | --- |
| CCOCc1nc2c(N)nc3ccccc3c2n1CC(C)(C)NC(=O)CCC(=O)NN [IRM5, N-{2-[4-Amino-2-(ethoxymethyl)-1H-imidazo[4,5-c]quinolin-1-yl]-1,1-dimethylethyl}-4-hydrazino-4-oxobutanamide] | 203 to 204.6 °C |
| CCCc1nc2c(N)nc3cc(OCCCCCCNC(=O)c4ccc(N=[N+]=[N-])cc4O)ccc3c2s1 [IRM9, N-{6-[(4-Amino-2-propyl[1,3]thiazolo[4,5-c]quinolin-7-yl)oxy]hexyl}-4-azido-2-hydroxybenzamide] | 127 to 128 °C |
